Assay results taken from PMC1664607 (PLoS Medicine, 2006).
In brackets after ≈: the same amount, converted by molar mass. Read-outs that look alike come from different tables or passages of the source.

Key:
[1] = test system: M. tuberculosis ATCC 35837 (H37Rv-E-R); assay: microbe, parasite or virus in culture; type: cell-based; settings: Mycobacterium tuberculosis, 336 h
[2] = type: in vitro ADME, human, rat, mouse, dog, rabbit, and monkey; settings: 2 h
Procedure: The study was undertaken to investigate the metabolites produced by the metabolic reactions of OPC-67683 using human, rat, mouse, dog, rabbit, and monkey liver microsomes. Pooled human liver microsomes (20 mg/ml) from ten donors were prepared at the Biomedical Research Institute, Human and Animal Bridge Discussion Group (Chiba, Japan). Human liver samples were legally procured from the National Disease Research Interchange (http://www.ndriresource.org/) through the international partnership with the Human and Animal Bridge Discussion Group. The study was conducted in accordance with the Declaration of Helsinki.
The reactions were performed in duplicate in a shaking water bath at 37 °C for 2 h. The incubation mixtures were extracted with acetonitrile and ethyl acetate, and the samples were analyzed by HPLC and LC-ESI-MS/MS.

[3] = test system: mycolic acid synthesis in M. bovis BCG; assay: microbe, parasite or virus in culture; type: cell-based; settings: for IC50: Mycobacterium tuberculosis variant bovis BCG, BCG
CYP2C19 = biological target: T1, CYP2C19 (Homo sapiens, UniProt P33261); assay: S-mephenytoin 4′ -hydroxylation in human liver microsomes; type: in vitro ADME; settings: 100 μM S-mephenytoin
T1 construct: Standard incubation mixtures of 0.5 ml contained microsomal protein (0.1–0.5 mg); from tissue; host or cells: pooled human liver microsomes (ten donors)

M. tuberculosis Kurono = assay: Therapeutic efficacy in an experimental mouse model of chronic TB; type: in vivo, ICR mice; settings: for Log of Viable Counts/Lung: mean ± S.D., n = 5
S. typhimurium TA1535 = assay: Bacterial reverse mutation (BRM) test; type: cell-based
Procedure: (§1) The BRM test was performed in accordance with OECD Guideline 471 using Salmonella tyiphimurium TA98, TA100, TA1535, and TA1537, and Escherichia coli WP2 uvrA [11]. Each bacterial strain was pre-cultured at 37 °C for 18 h using a nutrient broth (Nissui Pharmaceutical; http://www.nissui-pharm.co.jp/index_e.html). After adjustment to 2.4 at OD660 nm, each bacterial suspension was added to a test tube containing the designated compound in the absence or presence of rat liver microsome (S9) mix. After a 20-min incubation at 37 °C, top agar was added to each test tube and the contents were poured into minimum essential medium (Oriental Yeast; http://www.oyc.co.jp/e/index.htm). The number of revertants was counted 48 h after incubation at 37 °C.

E. coli WP2 uvr A = assay: Bacterial reverse mutation (BRM) test; type: cell-based
Procedure: as §1

S. typhimurium TA1537 = assay: Bacterial reverse mutation (BRM) test; type: cell-based
Procedure: as §1

S. typhimurium TA98 = assay: Bacterial reverse mutation (BRM) test; type: cell-based
Procedure: as §1

CYP2D6 = biological target: T2, CYP2D6 (Homo sapiens, UniProt P10635); assay: Bufuralol 1′ -hydroxylation in human liver microsomes; type: in vitro ADME; settings: 20 μM bufuralol
T2 construct: Standard incubation mixtures of 0.5 ml contained microsomal protein (0.1–0.5 mg); from tissue; host or cells: pooled human liver microsomes (ten donors)

CYP1A1/2 = assay: 7-Ethoxyresorufin O-deethylation in human liver microsomes; type: in vitro ADME; settings: 0.5 μM 7-ethoxyresorufin
[4] = test system: Salmonella tyiphimurium TA98, TA100, TA1535, and TA1537, and Escherichia coli WP2 uvrA; assay: Bacterial reverse mutation (BRM) test, overall result; type: cell-based; settings: absence and presence of S9 mix, OECD Guideline 471
Procedure: as §1

[5] = test system: intracellular M. tuberculosis H37Rv in THP-1 cells; assay: Activity against intracellular mycobacteria, 4-h pulsed exposure; type: cell-based, M. tuberculosis; human THP-1 cells; settings: further 68-h culture

T2 sequence (P10635 whole entry): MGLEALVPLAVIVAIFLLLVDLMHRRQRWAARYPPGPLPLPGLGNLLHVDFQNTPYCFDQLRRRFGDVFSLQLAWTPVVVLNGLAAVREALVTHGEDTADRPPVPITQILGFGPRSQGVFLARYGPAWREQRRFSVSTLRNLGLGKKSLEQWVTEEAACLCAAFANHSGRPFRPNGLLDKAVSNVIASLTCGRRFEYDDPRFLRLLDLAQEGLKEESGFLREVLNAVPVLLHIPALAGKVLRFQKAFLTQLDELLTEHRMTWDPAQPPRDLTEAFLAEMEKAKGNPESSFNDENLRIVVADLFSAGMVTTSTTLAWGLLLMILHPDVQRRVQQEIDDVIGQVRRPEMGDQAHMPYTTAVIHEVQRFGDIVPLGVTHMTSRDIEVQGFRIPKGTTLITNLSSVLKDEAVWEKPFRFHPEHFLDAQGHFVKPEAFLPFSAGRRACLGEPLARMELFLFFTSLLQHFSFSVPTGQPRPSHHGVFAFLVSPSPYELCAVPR
T1 sequence (P33261 whole entry): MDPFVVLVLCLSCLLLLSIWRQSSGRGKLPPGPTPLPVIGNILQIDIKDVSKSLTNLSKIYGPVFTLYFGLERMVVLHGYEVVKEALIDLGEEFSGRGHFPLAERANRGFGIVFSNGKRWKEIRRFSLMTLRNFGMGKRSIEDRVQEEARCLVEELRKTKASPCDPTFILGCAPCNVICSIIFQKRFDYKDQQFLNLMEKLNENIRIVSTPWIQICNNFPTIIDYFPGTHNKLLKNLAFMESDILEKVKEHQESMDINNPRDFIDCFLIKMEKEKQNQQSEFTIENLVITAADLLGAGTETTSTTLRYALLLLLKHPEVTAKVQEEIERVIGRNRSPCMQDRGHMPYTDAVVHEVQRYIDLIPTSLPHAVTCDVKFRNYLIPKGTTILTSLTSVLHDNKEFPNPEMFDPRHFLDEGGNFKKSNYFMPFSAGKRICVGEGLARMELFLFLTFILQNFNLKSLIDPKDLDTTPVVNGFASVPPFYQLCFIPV

For `C[C@]1(COc2ccc(N3CCC(Oc4ccc(OC(F)(F)F)cc4)CC3)cc2)Cn2cc([N+](=O)[O-])nc2O1` [OPC-67683, (R)-2-methyl-6-nitro-2-(4-[4-(4-trifluoromethoxyphenoxy)piperidin-1-yl]phenoxymethyl}-2,3-dihydroimidazo[2,1-b]oxazole], the MIC [1] was 0.012 µg/mL (≈ 0.0225 µM), the “Stability in the in vitro metabolism of liver microsomes” value [2] was “stable” and the “IC50, α-Mycolic acid” value ([3]; 14C acetic acid incorporation, 60 min, TLC n = 3) was >0.25 µg/mL. For the same compound, the IC50 ([3]; 1 h, read-out: IC50, Fatty acid) was > 0.25 µg/mL, the IC50 ([3]; 1 h, read-out: IC50, Keto-mycolic acid) was 0.021 µg/mL (≈ 0.0393 µM) and the IC50 ([3]; 1 h, read-out: IC50, Methoxy-mycolic acid) was 0.036 µg/mL (≈ 0.0674 µM). The IC50 ([3]; 1 h, read-out: IC50, α-Mycolic acid) was > 0.25 µg/mL, the IC50 ([3]; read-out: IC50 values, synthesis of methoxy- and keto-mycolic acid) was 0.021 to 0.036 µg/mL (≈ 0.0393 to 0.0674 µM) and the “Percent of Control” value (CYP2C19; 10 μM) was 113.3% of Control. For the same compound, the “Percent of Control” value (CYP2C19; 100 μM) was 107.6% of Control, the “Log of Viable Counts/Lung” value (M. tuberculosis Kurono; 0.156 mg/kg once daily for 28 d (4 weeks)) was 6.506 ± 0.294^a:NS, b:NS and the “Log of Viable Counts/Lung” value (M. tuberculosis Kurono; 0.313 mg/kg once daily for 28 d (4 weeks)) was 5.959 ± 0.436^a:**, b:**. For the same compound, the “Log of Viable Counts/Lung” value (M. tuberculosis Kurono; 0.625 mg/kg once daily for 28 d (4 weeks)) was 5.457 ± 0.245^a:**, b:**, the “Log of Viable Counts/Lung” value (M. tuberculosis Kurono; 1.25 mg/kg once daily for 28 d (4 weeks)) was 4.867 ± 0.400^a:**, b:** and the “Log of Viable Counts/Lung” value (M. tuberculosis Kurono; 2.5 mg/kg once daily for 28 d (4 weeks)) was 4.753 ± 0.297^a:**, b:**. For the same compound, the “Log of Viable Counts/Lung” value (M. tuberculosis Kurono; 5 mg/kg once daily for 28 d (4 weeks)) was 4.272 ± 0.463^a:**, b:**, the “Log of Viable Counts/Lung” value (M. tuberculosis Kurono; 10 mg/kg once daily for 28 d (4 weeks)) was 3.943 ± 0.465^a:**, b:** and the “Log of Viable Counts/Lung” value (M. tuberculosis Kurono; 20 mg/kg once daily for 28 d (4 weeks)) was 3.495 ± 0.522^a:**, b:**. The “Log of Viable Counts/Lung” value (M. tuberculosis Kurono; 40 mg/kg once daily for 28 d (4 weeks)) was 2.791 ± 0.671^a:**, b:**, the “Dose that could produce a CFU reduction of at least 95%” value (M. tuberculosis Kurono; lung, once daily for 28 d) was 0.625 mg/kg and the Revertants/Plate (S. typhimurium TA1535; S9 mix +, 625 μg/plate) was 6 Revertants/Plate. For the same compound, the Revertants/Plate (S. typhimurium TA1535; S9 mix +, 2,500 μg/plate) was 8 Revertants/Plate, the Revertants/Plate (S. typhimurium TA1535; S9 mix +, 5,000 μg/plate) was 9 Revertants/Plate and the Revertants/Plate (S. typhimurium TA1535; S9 mix −, 312.5 μg/plate) was 6 Revertants/Plate. It also gave a Revertants/Plate (S. typhimurium TA1535; S9 mix −, 625 μg/plate) of 9 Revertants/Plate, a Revertants/Plate (S. typhimurium TA1535; S9 mix −, 2,500 μg/plate) of 7 Revertants/Plate and a Revertants/Plate (S. typhimurium TA1535; S9 mix −, 5,000 μg/plate) of 6 Revertants/Plate. It also gave a Revertants/Plate (E. coli WP2 uvr A; S9 mix +, 312.5 μg/plate) of 23 Revertants/Plate, a Revertants/Plate (E. coli WP2 uvr A; S9 mix +, 625 μg/plate) of 20 Revertants/Plate and a Revertants/Plate (E. coli WP2 uvr A; S9 mix +, 1,250 μg/plate) of 25 Revertants/Plate. The Revertants/Plate (E. coli WP2 uvr A; S9 mix +, 2,500 μg/plate) was 23 Revertants/Plate, the Revertants/Plate (E. coli WP2 uvr A; S9 mix +, 5,000 μg/plate) was 29 Revertants/Plate and the Revertants/Plate (E. coli WP2 uvr A; S9 mix −, 312.5 μg/plate) was 23 Revertants/Plate. For the same compound, the Revertants/Plate (E. coli WP2 uvr A; S9 mix −, 625 μg/plate) was 25 Revertants/Plate, the Revertants/Plate (E. coli WP2 uvr A; S9 mix −, 1,250 μg/plate) was 20 Revertants/Plate and the Revertants/Plate (E. coli WP2 uvr A; S9 mix −, 2,500 μg/plate) was 24 Revertants/Plate. The Revertants/Plate (E. coli WP2 uvr A; S9 mix −, 5,000 μg/plate) was 24 Revertants/Plate, the Revertants/Plate (S. typhimurium TA1537; S9 mix +, 312.5 μg/plate) was 73 Revertants/Plate and the Revertants/Plate (S. typhimurium TA1537; S9 mix +, 625 μg/plate) was 72 Revertants/Plate. For the same compound, the Revertants/Plate (S. typhimurium TA1537; S9 mix +, 1,250 μg/plate) was 66 Revertants/Plate, the Revertants/Plate (S. typhimurium TA1537; S9 mix +, 2,500 μg/plate) was 63 Revertants/Plate and the Revertants/Plate (S. typhimurium TA1537; S9 mix +, 5,000 μg/plate) was 74 Revertants/Plate. For the same compound, the Revertants/Plate (S. typhimurium TA1537; S9 mix −, 312.5 μg/plate) was 60 Revertants/Plate, the Revertants/Plate (S. typhimurium TA1537; S9 mix −, 625 μg/plate) was 62 Revertants/Plate and the Revertants/Plate (S. typhimurium TA1537; S9 mix −, 1,250 μg/plate) was 54 Revertants/Plate. For the same compound, the Revertants/Plate (S. typhimurium TA1537; S9 mix −, 2,500 μg/plate) was 61 Revertants/Plate, the Revertants/Plate (S. typhimurium TA1537; S9 mix −, 5,000 μg/plate) was 63 Revertants/Plate and the Revertants/Plate (S. typhimurium TA98; S9 mix +, 312.5 μg/plate) was 31 Revertants/Plate. It also gave a Revertants/Plate (S. typhimurium TA98; S9 mix +, 625 μg/plate) of 31 Revertants/Plate, a Revertants/Plate (S. typhimurium TA98; S9 mix +, 1,250 μg/plate) of 30 Revertants/Plate and a Revertants/Plate (S. typhimurium TA98; S9 mix +, 2,500 μg/plate) of 31 Revertants/Plate. It also gave a Revertants/Plate (S. typhimurium TA98; S9 mix +, 5,000 μg/plate) of 35 Revertants/Plate, a Revertants/Plate (S. typhimurium TA98; S9 mix −, 312.5 μg/plate) of 29 Revertants/Plate and a Revertants/Plate (S. typhimurium TA98; S9 mix −, 625 μg/plate) of 29 Revertants/Plate. The Revertants/Plate (S. typhimurium TA98; S9 mix −, 1,250 μg/plate) was 34 Revertants/Plate, the Revertants/Plate (S. typhimurium TA98; S9 mix −, 2,500 μg/plate) was 37 Revertants/Plate and the Revertants/Plate (S. typhimurium TA98; S9 mix −, 5,000 μg/plate) was 31 Revertants/Plate. For the same compound, the “Percent of Control” value (CYP2D6; 10 μM) was 99.1% of Control, the “Percent of Control” value (CYP2D6; 30 μM) was 103.3% of Control and the “Percent of Control” value (CYP2D6; 100 μM) was 97.8% of Control. For the same compound, the “Percent of Control” value (CYP1A1/2; 10 μM) was 98.4% of Control, the “Percent of Control” value (CYP1A1/2; 30 μM) was 102.5% of Control and the “Percent of Control” value (CYP1A1/2; 100 μM) was 98.6% of Control. For the same compound, the “Mutagenic potential in the BRM test” value [4] was “did not show mutagenicity” and the “Activity against intracellular M. tuberculosis H37Rv” value [5] was “highly active”.
